From ChEMBL document CHEMBL5620415, “Design, synthesis and anti-hepatic fibrosis activity of novel diphenyl vitamin D receptor agonists” (Eur J Med Chem, 2023)
Activity calls are given as the source filed them. No cut-off for these calls is given here.

Key:
[1] = tested on: Mus musculus; experiment: Anti-fibrotic effect in CCl4-induced hepatic fibrosis C57BL/6 mouse model assessed as inhibition of proliferation of fibrous tissue at 500 ug/kg, po five times a week for 2 weeks by Masson's Trichrome […] staining based assay; format: functional, organism-based; conditions: dose 500.0 µg/kg
[2] = tested on: Mus musculus; experiment: Anti-fibrotic effect in CCl4-induced hepatic fibrosis C57BL/6 mouse model assessed as decrease in inflammatory cell infiltration at 500 ug/kg, po five times a week for 2 weeks by Masson's Trichrome staining based assay; format: functional, organism-based; conditions: dose 500.0 µg/kg
[3] = tested on: Mus musculus; experiment: Anti-fibrotic effect in bile duct ligation (BDL) surgery-induced hepatic fibrosis C57BL/6 mouse model assessed as decrease in inflammatory cell infiltration at 500 ug/kg, po five times a week for 2 weeks by Masson's Trichrome staining based assay; format: functional, organism-based; conditions: dose 500.0 µg/kg
[4] = tested on: Mus musculus; experiment: Anti-fibrotic effect in improving CCl4-induced hepatic fibrosis C57BL/6 mouse model assessed as inhibition of fibronectin (Fn) expression in liver at 500 ug/kg, po five times a week for 2 weeks by RT-qPCR analysis; format: functional, organism-based; conditions: dose 500.0 µg/kg
[5] = tested on: Mus musculus; experiment: Anti-fibrotic effect in CCl4-induced hepatic fibrosis C57BL/6 mouse model assessed as inhibition of collagen deposition at 500 ug/kg, po five times a week for 2 weeks by Masson's Trichrome […] staining based assay; format: functional, organism-based; conditions: dose 500.0 µg/kg
[6] = tested on: Mus musculus; experiment: Anti-fibrotic effect in CCl4-induced hepatic fibrosis C57BL/6 mouse model assessed as inhibition of serum total bile acid (TBA) level at 500 ug/kg, po five times a week for 2 weeks; format: functional, organism-based; conditions: dose 500.0 µg/kg
[7] = biological target: T1, Vitamin D3 receptor (Homo sapiens) (UniProt P11473); experiment: Binding affinity to human full-length Vitamin D receptor assessed as relative binding affinity at 1 uM incubated for 2 hrs by fluorescence polarization based competitive binding assay relative to calcipotriol; conditions: filed as agonist
T1 sequence (whole entry): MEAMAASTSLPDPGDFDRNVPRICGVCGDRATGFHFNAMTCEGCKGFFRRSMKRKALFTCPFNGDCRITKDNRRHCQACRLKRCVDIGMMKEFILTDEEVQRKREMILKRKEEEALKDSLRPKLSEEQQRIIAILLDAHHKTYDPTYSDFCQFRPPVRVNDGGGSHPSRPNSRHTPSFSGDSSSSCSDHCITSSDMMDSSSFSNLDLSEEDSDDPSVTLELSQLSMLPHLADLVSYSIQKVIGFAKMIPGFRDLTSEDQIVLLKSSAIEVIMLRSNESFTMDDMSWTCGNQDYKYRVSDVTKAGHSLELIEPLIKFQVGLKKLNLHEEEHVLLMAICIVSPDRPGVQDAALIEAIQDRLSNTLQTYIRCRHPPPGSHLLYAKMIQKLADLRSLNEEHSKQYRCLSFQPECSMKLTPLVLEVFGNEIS

[8] = tested on: Mus musculus; experiment: Anti-fibrotic effect in bile duct ligation (BDL) surgery-induced hepatic fibrosis C57BL/6 mouse model assessed as reduction the lesions at 500 ug/kg, po five times a week for 2 weeks by Masson's Trichrome staining based assay; format: functional, organism-based; conditions: dose 500.0 µg/kg
[9] = tested on: Mus musculus; experiment: Anti-fibrotic effect in bile duct ligation (BDL) surgery-induced hepatic fibrosis C57BL/6 mouse model assessed as inhibition of serum AST level at 500 ug/kg, po five times a week for 2 weeks; format: functional, organism-based; conditions: dose 500.0 µg/kg
[10] = tested on: Mus musculus; experiment: Anti-fibrotic effect in bile duct ligation (BDL) surgery-induced hepatic fibrosis C57BL/6 mouse model assessed as inhibition of serum ALT level at 500 ug/kg, po five times a week for 2 weeks; format: functional, organism-based; conditions: dose 500.0 µg/kg
[11] = tested on: Mus musculus; experiment: Anti-fibrotic effect in bile duct ligation (BDL) surgery-induced hepatic fibrosis C57BL/6 mouse model assessed as inhibition of serum total bile acid (TBA) level at 500 ug/kg, po five times a week for 2 weeks; format: functional, organism-based; conditions: dose 500.0 µg/kg
[12] = tested on: Mus musculus; experiment: Anti-fibrotic effect in CCl4-induced hepatic fibrosis C57BL/6 mouse model assessed as reduction the lesions at 500 ug/kg, po five times a week for 2 weeks by Masson's Trichrome staining based assay; format: functional, organism-based; conditions: dose 500.0 µg/kg
[13] = tested on: Mus musculus; experiment: Anti-fibrotic effect in CCl4-induced hepatic fibrosis C57BL/6 mouse model assessed as decrease in inflammatory cell infiltration at 500 ug/kg, po five times a week for 2 weeks by Hematoxylin-Eosin (H&E) staining based assay; format: functional, organism-based; conditions: dose 500.0 µg/kg
[14] = tested on: Mus musculus; experiment: Anti-fibrotic effect in CCl4-induced hepatic fibrosis C57BL/6 mouse model assessed as inhibition of serum AST level at 500 ug/kg, po five times a week for 2 weeks; format: functional, organism-based; conditions: dose 500.0 µg/kg
[15] = tested on: Mus musculus; experiment: Anti-fibrotic effect in bile duct ligation (BDL) surgery-induced hepatic fibrosis C57BL/6 mouse model assessed as decrease in inflammatory cell infiltration at 500 ug/kg, po five times a week for 2 weeks by Hematoxylin-Eosin (H&E) staining based assay; format: functional, organism-based; conditions: dose 500.0 µg/kg
[16] = tested on: Mus musculus; experiment: Anti-fibrotic effect in CCl4-induced hepatic fibrosis C57BL/6 mouse model assessed as reduction in hepatic fibrosis lesions at 500 ug/kg, po five times a week for 2 weeks by Masson's Trichrome staining based assay; format: functional, organism-based; conditions: dose 500.0 µg/kg
[17] = tested on: Mus musculus; experiment: Anti-fibrotic effect in CCl4-induced hepatic fibrosis C57BL/6 mouse model assessed as inhibition of collagen deposition at 500 ug/kg, po five times a week for 2 weeks by Hematoxylin-Eosin (H&E) staining based assay; format: functional, organism-based; conditions: dose 500.0 µg/kg
[18] = Cytotoxicity against human LX-2 cells by CCK-8 assay; format: toxicity, cell-based
[19] = tested on: Mus musculus; experiment: Anti-fibrotic effect in CCl4-induced hepatic fibrosis C57BL/6 mouse model assessed as inhibition of proliferation of fibrous tissue at 500 ug/kg, po five times a week for 2 weeks by Hematoxylin-Eosin (H&E) staining based assay; format: functional, organism-based; conditions: dose 500.0 µg/kg
[20] = tested on: Mus musculus; experiment: Anti-fibrotic effect in CCl4-induced hepatic fibrosis C57BL/6 mouse model assessed as inhibition of serum ALT level at 500 ug/kg, po five times a week for 2 weeks; format: functional, organism-based; conditions: dose 500.0 µg/kg
[21] = tested on: Mus musculus; experiment: Anti-fibrotic effect in bile duct ligation (BDL) surgery-induced hepatic fibrosis C57BL/6 mouse model assessed as inhibition of Timp-1 expression in liver at 500 ug/kg, po five times a week for 2 weeks by RT-qPCR analysis; format: functional, organism-based; conditions: dose 500.0 µg/kg
[22] = tested on: Mus musculus; experiment: Anti-fibrotic effect in CCl4-induced hepatic fibrosis C57BL/6 mouse model assessed as inhibition of Timp-1 expression in liver at 500 ug/kg, po five times a week for 2 weeks by RT-qPCR analysis; format: functional, organism-based; conditions: dose 500.0 µg/kg
[23] = tested on: Mus musculus; experiment: Anti-fibrotic effect in bile duct ligation (BDL) surgery-induced hepatic fibrosis C57BL/6 mouse model assessed as inhibition of collagen deposition in liver at 500 ug/kg, po five times a week for 2 weeks by Masson's Trichrome […] staining based assay; format: functional, organism-based; conditions: dose 500.0 µg/kg
[24] = Toxicity in bile duct ligation (BDL) surgery-induced hepatic fibrosis C57BL/6 mouse model assessed as serum hypercalcemia at 500 ug/kg, po five times a week for 2 weeks by calcium assay kit; format: organism-based; conditions: in vivo, 0.5 mg/kg, 336 h, dose 500 µg/kg
[25] = tested on: Mus musculus; experiment: Anti-fibrotic effect in improving CCl4-induced hepatic fibrosis C57BL/6 mouse model assessed as inhibition of Ctgf expression in liver at 500 ug/kg, po five times a week for 2 weeks by RT-qPCR analysis; format: functional, organism-based; conditions: dose 500.0 µg/kg
[26] = tested on: Mus musculus; experiment: Anti-fibrotic effect in bile duct ligation (BDL) surgery-induced hepatic fibrosis C57BL/6 mouse model assessed as inhibition of collagen deposition in liver at 500 ug/kg, po five times a week for 2 weeks by Hematoxylin-Eosin (H&E) staining based assay; format: functional, organism-based; conditions: dose 500.0 µg/kg

## OCc1ccc(/C=C/c2ccc(OCCCC(F)(F)F)cc2)cc1CO
[1]
  Activity: Active
[2]
  Activity: Active
[3]
  Activity: Active
[4]
  Activity: Active
[5]
  Activity: Active
[6]
  Activity: Active
[7]
  RBA: 51.4%
[8]
  Activity: Active
[9]
  Activity: Active
[10]
  Activity: Active
[11]
  Activity: Active
[12]
  Activity: Active
[13]
  Activity: Active
[14]
  Activity: Active
[15]
  Activity: Active
[16]
  Activity: Active
[17]
  Activity: Active
[18]
  IC50: > 30 µM
[19]
  Activity: Active
[20]
  Activity: Active
[21]
  Activity: Active
[22]
  Activity: Active
[23]
  Activity: Active
[24]
  Activity: Non-Toxic
[25]
  Activity: Active
[26]
  Activity: Active
